Like-named read-outs stand apart in the source and are kept apart here. Peptide text beside a SMILES is read from it.
How the values were obtained:
CRF2R = biological target: T1, CRF2R (Homo sapiens, UniProt Q13324); test: CRF2R agonist activation (EC50 / Emax), called comparative CRF binding; type: cell-based
T1 sequence (Q13324 1-411): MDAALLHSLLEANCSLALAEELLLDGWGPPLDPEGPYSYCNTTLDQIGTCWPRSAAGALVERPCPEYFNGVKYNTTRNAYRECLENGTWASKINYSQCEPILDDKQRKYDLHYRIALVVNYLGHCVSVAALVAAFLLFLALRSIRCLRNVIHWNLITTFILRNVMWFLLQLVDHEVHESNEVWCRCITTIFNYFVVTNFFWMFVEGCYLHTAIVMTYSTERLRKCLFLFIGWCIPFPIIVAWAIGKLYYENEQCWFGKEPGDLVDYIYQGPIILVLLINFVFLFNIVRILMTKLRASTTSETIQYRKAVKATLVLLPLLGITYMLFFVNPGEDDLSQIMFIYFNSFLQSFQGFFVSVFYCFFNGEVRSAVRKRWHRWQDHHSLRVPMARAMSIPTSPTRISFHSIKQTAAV
Procedure, shortened: (§1)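 Read-out is Gαs-driven cAMP induction, quantified directly in lysates or through CRE-reporter gene expression, after treating CRF1R- or CRF2R-expressing cells with peptide. Vehicle-treated cells serve as the comparison.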

CRF1R = biological target: T2, CRF1R (Homo sapiens, UniProt P34998); test: CRF1R agonist activation (EC50 / Emax), called comparative CRF binding; type: cell-based
T2 sequence (P34998 24-415): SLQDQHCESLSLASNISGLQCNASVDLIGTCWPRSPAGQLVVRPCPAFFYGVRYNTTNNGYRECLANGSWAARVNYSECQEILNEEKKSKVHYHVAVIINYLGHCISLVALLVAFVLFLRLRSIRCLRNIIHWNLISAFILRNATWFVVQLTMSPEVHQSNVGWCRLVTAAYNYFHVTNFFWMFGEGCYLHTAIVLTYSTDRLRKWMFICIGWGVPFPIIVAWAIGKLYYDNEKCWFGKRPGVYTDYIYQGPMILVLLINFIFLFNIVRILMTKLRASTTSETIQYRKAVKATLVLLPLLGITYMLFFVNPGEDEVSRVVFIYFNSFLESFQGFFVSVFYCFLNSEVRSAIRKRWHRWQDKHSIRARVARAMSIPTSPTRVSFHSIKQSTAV
Procedure, shortened: as §1

Compound	Emax (CRF2R; read-out: CRF2R Emax) [%]	Emax (CRF1R; read-out: CRF1R Emax) [%]	EC50 (CRF2R) [nM]	EC50 (CRF2R; read-out: CRF2R EC50) [nM]	EC50 (CRF1R; read-out: CRF1R EC50) [nM]	other results
CC[C@H](C)[C@H](NC(=O)[C@H](CCCNC(=N)N)NC(=O)[C@H](C)NC(=O)[C@H](CC(N)=O)NC(=O)[C@H](CCC(N)=O)NC(=O)[C@H](CCC(=O)O)NC(=O)[C@H](C)NC(=O)[C@H](CCCNC(=N)N)NC(=O)[C@H](CCC(=O)O)NC(=O)[C@H](CCCNC(=N)N)NC(=O)[C@H](CCC(N)=O)NC(=O)[C@H](CO)NC(=O)[C@H](CCC(N)=O)NC(=O)[C@@H](NC(=O)[C@H](CCCCN)NC(=O)[C@H](CCC(=O)O)NC(=O)[C@H](CC(C)C)NC(=O)[C@H](CCC(=O)O)NC(=O)[C@H](CC(C)C)NC(=O)[C@H](CC(C)C)NC(=O)[C@@H](NC(=O)[C@H](CCCNC(=N)N)NC(=O)[C@H](CC(C)C)NC(=O)[C@H](CC(C)C)NC(=O)[C@H](CC(C)C)NC(=O)[C@H](CC(C)C)NC(=O)[C@@H]1CCCN1C(=O)[C@@H](NC(=O)[C@H](CC(=O)O)NC(=O)[C@@H](NC(=O)[C@H](CO)NC(=O)[C@H](CC(C)C)NC(=O)[C@H](CO)NC(=O)[C@@H]1CCCN1C(=O)[C@H](CC(N)=O)NC(=O)[C@@H](N)CC(=O)O)[C@@H](C)CC)C(C)C)[C@@H](C)O)[C@@H](C)O)C(=O)N[C@@H](Cc1ccccc1)C(=O)N[C@@H](C)C(=O)N[C@@H](CCCNC(=N)N)C(=O)N[C@H](C(N)=O)C(C)C [compound 384] (H-DNPSLSIDVPLLLLRTLLELEKTQSQRERAEQNARIFARV-NH2; N-terminus assumed)	97.3	70.3				
CC[C@H](C)[C@H](NC(=O)[C@H](CCCNC(=N)N)NC(=O)[C@H](C)NC(=O)[C@H](CC(N)=O)NC(=O)[C@H](CCC(N)=O)NC(=O)[C@H](CCC(=O)O)NC(=O)[C@H](C)NC(=O)[C@H](CCCNC(=N)N)NC(=O)[C@H](CCC(=O)O)NC(=O)[C@H](CCCNC(=N)N)NC(=O)[C@H](CCC(N)=O)NC(=O)[C@H](CO)NC(=O)[C@H](CCC(N)=O)NC(=O)[C@@H](NC(=O)[C@H](CCCCN)NC(=O)[C@H](CCC(=O)O)NC(=O)[C@H](CC(C)C)NC(=O)[C@H](CCC(=O)O)NC(=O)[C@H](CC(C)C)NC(=O)[C@H](CC(C)C)NC(=O)[C@@H](NC(=O)[C@H](CCCNC(=N)N)NC(=O)[C@H](CC(C)C)NC(=O)[C@H](CC(C)C)NC(=O)[C@H](Cc1ccccc1)NC(=O)[C@H](CC(C)C)NC(=O)[C@@H]1CCCN1C(=O)[C@@H](NC(=O)[C@H](CC(=O)O)NC(=O)[C@@H](NC(=O)[C@H](CO)NC(=O)[C@H](CC(C)C)NC(=O)[C@H](CO)NC(=O)[C@@H]1CCCN1C(=O)[C@H](CC(N)=O)NC(=O)[C@@H](N)CC(=O)O)[C@@H](C)CC)C(C)C)[C@@H](C)O)[C@@H](C)O)C(=O)N[C@@H](Cc1ccccc1)C(=O)N[C@@H](C)C(=O)N[C@@H](CCCNC(=N)N)C(=O)N[C@H](C(N)=O)C(C)C [compound 385] (H-DNPSLSIDVPLFLLRTLLELEKTQSQRERAEQNARIFARV-NH2; N-terminus assumed)	100	46	10.3			EC50 (CRF1R): ≥ 1000 nM
CC[C@H](C)[C@H](NC(=O)[C@H](CCCNC(=N)N)NC(=O)[C@H](C)NC(=O)[C@H](CC(N)=O)NC(=O)[C@H](CCC(N)=O)NC(=O)[C@H](CCC(=O)O)NC(=O)[C@H](C)NC(=O)[C@H](CCCNC(=N)N)NC(=O)[C@H](CCC(=O)O)NC(=O)[C@H](CCCNC(=N)N)NC(=O)[C@H](CCC(N)=O)NC(=O)[C@H](CO)NC(=O)[C@H](CCC(N)=O)NC(=O)[C@@H](NC(=O)[C@H](CCCCN)NC(=O)[C@H](CCC(=O)O)NC(=O)[C@H](CC(C)C)NC(=O)[C@H](CCC(=O)O)NC(=O)[C@H](CC(C)C)NC(=O)[C@H](CC(C)C)NC(=O)[C@@H](NC(=O)[C@H](CCCNC(=N)N)NC(=O)[C@H](CC(C)C)NC(=O)[C@H](CC(C)C)NC(=O)[C@H](Cc1ccccc1)NC(=O)[C@H](Cc1ccccc1)NC(=O)[C@@H]1CCCN1C(=O)[C@@H](NC(=O)[C@H](CC(=O)O)NC(=O)[C@@H](NC(=O)[C@H](CO)NC(=O)[C@H](CC(C)C)NC(=O)[C@H](CO)NC(=O)[C@@H]1CCCN1C(=O)[C@H](CC(N)=O)NC(=O)[C@@H](N)CC(=O)O)[C@@H](C)CC)C(C)C)[C@@H](C)O)[C@@H](C)O)C(=O)N[C@@H](Cc1ccccc1)C(=O)N[C@@H](C)C(=O)N[C@@H](CCCNC(=N)N)C(=O)N[C@H](C(N)=O)C(C)C [compound 386] (H-DNPSLSIDVPFFLLRTLLELEKTQSQRERAEQNARIFARV-NH2; N-terminus assumed)	96	78.2		8.7	≥ 1000	
CC[C@H](C)[C@H](NC(=O)[C@H](CCCNC(=N)N)NC(=O)[C@H](C)NC(=O)[C@H](CC(N)=O)NC(=O)[C@H](CCC(N)=O)NC(=O)[C@H](CCC(=O)O)NC(=O)[C@H](C)NC(=O)[C@H](CCCNC(=N)N)NC(=O)[C@H](CCC(=O)O)NC(=O)[C@H](CCCNC(=N)N)NC(=O)[C@H](CCC(N)=O)NC(=O)[C@H](CO)NC(=O)[C@H](CCC(N)=O)NC(=O)[C@@H](NC(=O)[C@H](CCCCN)NC(=O)[C@H](CCC(=O)O)NC(=O)[C@H](CC(C)C)NC(=O)[C@H](CCC(=O)O)NC(=O)[C@H](CC(C)C)NC(=O)[C@H](CC(C)C)NC(=O)[C@@H](NC(=O)[C@H](CCCNC(=N)N)NC(=O)[C@H](CC(C)C)NC(=O)[C@H](CC(C)C)NC(=O)[C@H](Cc1ccc(O)cc1)NC(=O)[C@H](CC(C)C)NC(=O)[C@@H]1CCCN1C(=O)[C@@H](NC(=O)[C@H](CC(=O)O)NC(=O)[C@@H](NC(=O)[C@H](CO)NC(=O)[C@H](CC(C)C)NC(=O)[C@H](CO)NC(=O)[C@@H]1CCCN1C(=O)[C@H](CC(N)=O)NC(=O)[C@@H](N)CC(=O)O)[C@@H](C)CC)C(C)C)[C@@H](C)O)[C@@H](C)O)C(=O)N[C@@H](Cc1ccccc1)C(=O)N[C@@H](C)C(=O)N[C@@H](CCCNC(=N)N)C(=O)N[C@H](C(N)=O)C(C)C [compound 387] (H-DNPSLSIDVPLYLLRTLLELEKTQSQRERAEQNARIFARV-NH2; N-terminus assumed)	100	50.1		17.8	≥ 1000	
CC[C@H](C)[C@H](NC(=O)[C@H](CO)NC(=O)[C@H](CC(C)C)NC(=O)[C@H](CO)NC(=O)[C@@H]1CCCN1C(=O)[C@H](CC(N)=O)NC(=O)[C@@H](N)CC(=O)O)C(=O)N[C@@H](CC(=O)O)C(=O)N[C@@H](CC(C)C)C(=O)N[C@H](C(=O)N[C@@H](Cc1ccccc1)C(=O)N[C@@H](Cc1c[nH]cn1)C(=O)N[C@@H](CC(C)C)C(=O)N[C@@H](CC(C)C)C(=O)N[C@@H](CCCNC(=N)N)C(=O)N[C@H](C(=O)N[C@@H](CC(C)C)C(=O)N[C@@H](CC(C)C)C(=O)N[C@@H](CCC(=O)O)C(=O)N[C@@H](CC(C)C)C(=O)N[C@@H](C)C(=O)N[C@@H](CCCNC(=N)N)C(=O)N[C@H](C(=O)N[C@@H](CCC(N)=O)C(=O)N[C@@H](CO)C(=O)N[C@@H](CCC(N)=O)C(=O)N[C@@H](CCCNC(=N)N)C(=O)N[C@@H](CCC(=O)O)C(=O)N[C@@H](CCCNC(=N)N)C(=O)N[C@@H](C)C(=O)N[C@@H](CCC(=O)O)C(=O)N[C@@H](CCC(N)=O)C(=O)N[C@@H](CC(N)=O)C(=O)N[C@@H](CCCNC(=N)N)C(=O)N[C@H](C(=O)N[C@H](C(=O)N[C@@H](Cc1ccccc1)C(=O)N[C@@H](CC(=O)O)C(=O)N[C@@H](CO)C(=O)N[C@H](C(N)=O)C(C)C)[C@@H](C)CC)[C@@H](C)CC)[C@@H](C)O)[C@@H](C)O)[C@@H](C)O [hUcnI, human urocortin I, reference compound] (H-DNPSLSIDLTFHLLRTLLELARTQSQRERAEQNRIIFDSV-NH2)						Emax (CRF2R; read-out: CRF2R (Emax %), Emax): 100%; Emax (CRF1R; read-out: CRF1R (Emax %), Emax): 100%
CC[C@H](C)[C@H](NC(=O)[C@H](CO)NC(=O)[C@H](CC(C)C)NC(=O)[C@H](CO)NC(=O)[C@@H]1CCCN1C(=O)[C@H](CC(N)=O)NC(=O)[C@@H](N)CC(=O)O)C(=O)N[C@@H](CC(=O)O)C(=O)N[C@@H](CC(C)C)C(=O)N[C@H](C(=O)N[C@@H](Cc1ccccc1)C(=O)N[C@@H](Cc1cnc[nH]1)C(=O)N[C@@H](CC(C)C)C(=O)N[C@@H](CC(C)C)C(=O)N[C@@H](CCCNC(=N)N)C(=O)N[C@H](C(=O)N[C@@H](CC(C)C)C(=O)N[C@@H](CC(C)C)C(=O)N[C@@H](CCC(=O)O)C(=O)N[C@@H](CC(C)C)C(=O)N[C@@H](C)C(=O)N[C@@H](CCCNC(=N)N)C(=O)N[C@H](C(=O)N[C@@H](CCC(N)=O)C(=O)N[C@@H](CO)C(=O)N[C@@H](CCC(N)=O)C(=O)N[C@@H](CCCNC(=N)N)C(=O)N[C@@H](CCC(=O)O)C(=O)N[C@@H](CCCNC(=N)N)C(=O)N[C@@H](C)C(=O)N[C@@H](CCC(=O)O)C(=O)N[C@@H](CCC(N)=O)C(=O)N[C@@H](CC(N)=O)C(=O)N[C@@H](CCCNC(=N)N)C(=O)N[C@H](C(=O)N[C@H](C(=O)N[C@@H](Cc1ccccc1)C(=O)N[C@@H](CC(=O)O)C(=O)N[C@@H](CO)C(=O)N[C@H](C(N)=O)C(C)C)[C@@H](C)CC)[C@@H](C)CC)[C@@H](C)O)[C@@H](C)O)[C@@H](C)O [hUcnI, human urocortin I, reference compound] (H-DNPSLSIDLTFHLLRTLLELARTQSQRERAEQNRIIFDSV-NH2)			3.52			EC50 (CRF1R; CRF1R EC50): 9 nM
